± gives the expanded uncertainty stated by the source.
Key:
[1] = Molar enthalpy of transition or fusion; settings: Crystal; DSC
[2] = Crystal; DTA

Structure (SMILES) | Molar enthalpy of transition or fusion [1] | Normal melting temperature [2]
Clc1ccccc1Cl [1,2-dichlorobenzene] | 2.96 ± 0.203 kcal/mol | -17.30 ± 0.53 °C
Clc1cccc(Cl)c1 [1,3-dichlorobenzene] | 3.01 ± 0.203 kcal/mol | -24.90 ± 0.53 °C
Clc1ccc(Cl)cc1 [1,4-dichlorobenzene] | 4.35 ± 0.213 kcal/mol | 53.00 ± 0.53 °C
c1ccc2ccccc2c1 [naphthalene] | 4.54 ± 0.215 kcal/mol | 80.10 ± 0.53 °C
